Test: xn = mol fraction of the nth substance listed
Settings: Gas, isochoric method

C=C(F)C(F)(F)F [2,3,3,3-tetrafluoro-1-propene] + CC(C)C
Settings	specific volume [m3/kg]
303.15 K, 163.5 kPa, x2 = 0.472	0.1698
303.15 K, 180.2 kPa, x2 = 0.606	0.1663
303.15 K, 246.7 kPa, x2 = 0.234	0.0939
303.15 K, 260.6 kPa, x2 = 0.772	0.1279
303.15 K, 269.3 kPa, x2 = 0.4	0.0942
308.15 K, 166.4 kPa, x2 = 0.472	0.1699
308.15 K, 183.3 kPa, x2 = 0.606	0.1664
308.15 K, 251.2 kPa, x2 = 0.234	0.094
308.15 K, 265.4 kPa, x2 = 0.772	0.1279
308.15 K, 274.3 kPa, x2 = 0.4	0.0942
308.15 K, 426.8 kPa, x2 = 0.85	0.0797
313.15 K, 169.2 kPa, x2 = 0.472	0.1699
313.15 K, 186.5 kPa, x2 = 0.606	0.1664
313.15 K, 255.6 kPa, x2 = 0.234	0.094
313.15 K, 270.2 kPa, x2 = 0.772	0.1279
313.15 K, 279.2 kPa, x2 = 0.4	0.0943
313.15 K, 435.6 kPa, x2 = 0.85	0.0797
318.15 K, 172.1 kPa, x2 = 0.472	0.17
318.15 K, 189.7 kPa, x2 = 0.606	0.1665
318.15 K, 260.1 kPa, x2 = 0.234	0.094
318.15 K, 275.1 kPa, x2 = 0.772	0.1279
318.15 K, 284.2 kPa, x2 = 0.4	0.0943
318.15 K, 444.2 kPa, x2 = 0.85	0.0797
323.15 K, 174.7 kPa, x2 = 0.472	0.17
323.15 K, 192.9 kPa, x2 = 0.606	0.1665
323.15 K, 264.6 kPa, x2 = 0.234	0.094
323.15 K, 279.9 kPa, x2 = 0.772	0.128
323.15 K, 289.2 kPa, x2 = 0.4	0.0943
323.15 K, 452.8 kPa, x2 = 0.85	0.0797
328.15 K, 177.5 kPa, x2 = 0.472	0.17
328.15 K, 196 kPa, x2 = 0.606	0.1665
328.15 K, 269 kPa, x2 = 0.234	0.094
328.15 K, 284.6 kPa, x2 = 0.772	0.128
328.15 K, 294.1 kPa, x2 = 0.4	0.0943
328.15 K, 461.2 kPa, x2 = 0.85	0.0797
333.15 K, 180.3 kPa, x2 = 0.472	0.1701
333.15 K, 199.2 kPa, x2 = 0.606	0.1666
333.15 K, 273.4 kPa, x2 = 0.234	0.0941
333.15 K, 289.4 kPa, x2 = 0.772	0.128
333.15 K, 299 kPa, x2 = 0.4	0.0944
333.15 K, 469.7 kPa, x2 = 0.85	0.0798
338.15 K, 183.1 kPa, x2 = 0.472	0.1701
338.15 K, 202.3 kPa, x2 = 0.606	0.1666
338.15 K, 277.8 kPa, x2 = 0.234	0.0941
338.15 K, 294.2 kPa, x2 = 0.772	0.1281
338.15 K, 303.9 kPa, x2 = 0.4	0.0944
338.15 K, 477.9 kPa, x2 = 0.85	0.0798
343.15 K, 185.9 kPa, x2 = 0.472	0.1701
343.15 K, 205.5 kPa, x2 = 0.606	0.1666
343.15 K, 282.2 kPa, x2 = 0.234	0.0941
343.15 K, 298.9 kPa, x2 = 0.772	0.1281
343.15 K, 308.8 kPa, x2 = 0.4	0.0944
343.15 K, 486.3 kPa, x2 = 0.85	0.0798
348.15 K, 188.7 kPa, x2 = 0.472	0.1702
348.15 K, 208.6 kPa, x2 = 0.606	0.1667
348.15 K, 286.6 kPa, x2 = 0.234	0.0941
348.15 K, 303.6 kPa, x2 = 0.772	0.1281
348.15 K, 313.5 kPa, x2 = 0.4	0.0944
348.15 K, 494.6 kPa, x2 = 0.85	0.0798
353.15 K, 191.5 kPa, x2 = 0.472	0.1702
353.15 K, 211.8 kPa, x2 = 0.606	0.1667
353.15 K, 291 kPa, x2 = 0.234	0.0941
353.15 K, 308.1 kPa, x2 = 0.772	0.1281
353.15 K, 318.3 kPa, x2 = 0.4	0.0944
353.15 K, 502.9 kPa, x2 = 0.85	0.0798
358.15 K, 194.3 kPa, x2 = 0.472	0.1703
358.15 K, 214.9 kPa, x2 = 0.606	0.1667
358.15 K, 295.4 kPa, x2 = 0.234	0.0942
358.15 K, 312.6 kPa, x2 = 0.772	0.1282
358.15 K, 323.2 kPa, x2 = 0.4	0.0945
358.15 K, 511.2 kPa, x2 = 0.85	0.0798
363.15 K, 197.1 kPa, x2 = 0.472	0.1703
363.15 K, 218 kPa, x2 = 0.606	0.1668
363.15 K, 299.8 kPa, x2 = 0.234	0.0942
363.15 K, 328.1 kPa, x2 = 0.4	0.0945
363.15 K, 519.5 kPa, x2 = 0.85	0.0799
368.15 K, 200.1 kPa, x2 = 0.472	0.1703
368.15 K, 221.1 kPa, x2 = 0.606	0.1668
368.15 K, 304.1 kPa, x2 = 0.234	0.0942
368.15 K, 332.9 kPa, x2 = 0.4	0.0945
368.15 K, 527.7 kPa, x2 = 0.85	0.0799
373.15 K, 202.9 kPa, x2 = 0.472	0.1704
373.15 K, 224.3 kPa, x2 = 0.606	0.1669
373.15 K, 308.5 kPa, x2 = 0.234	0.0942
373.15 K, 337.7 kPa, x2 = 0.4	0.0945
373.15 K, 535.9 kPa, x2 = 0.85	0.0799
378.15 K, 205.7 kPa, x2 = 0.472	0.1704
378.15 K, 227.5 kPa, x2 = 0.606	0.1669
378.15 K, 313 kPa, x2 = 0.234	0.0942
378.15 K, 342.6 kPa, x2 = 0.4	0.0945
378.15 K, 544.1 kPa, x2 = 0.85	0.0799
383.15 K, 208.5 kPa, x2 = 0.472	0.1704
383.15 K, 230.6 kPa, x2 = 0.606	0.1669
383.15 K, 317.4 kPa, x2 = 0.234	0.0943
383.15 K, 347.4 kPa, x2 = 0.4	0.0946
383.15 K, 552.4 kPa, x2 = 0.85	0.0799
